This passage reports inhibition results from patent US7351721B2, “Amino acid derivatives and pharmaceutical composition comprising, as active ingredients, them” (Ono Pharmaceutical Co., Ltd., priority 1999, dated 2008).

This assay deals with T1, N-type calcium channel (Homo sapiens, UniProt Q00975).
T1 construct: endogenous in cells
The assay is described as follows: Determination of inhibitory activity on N-type calcium channel (Fura-2 fluorescence, KCl depolarization, with nifedipine). The class given is cell-based. The settings on record: compound at final concentration of 3 μM; depolarized with 80 mM potassium chloride; in presence of nifedipine; read-out: Inhibitory effect on calcium flow (%). The protocol: Determination of Inhibitory Activity on N-type Calcium Channel
Cell line was differentiated according to the method described in FEBS Letters, 235, 178-182, 1988. The cell was loaded with fluorescent reagent, Fura-2·AM (at the final concentration of 10 μM), at 37° C. for 30 minutes and suspended in Krebs-buffer containing HEPES (25 mM) to obtain the cell suspension. The obtained cell suspension was incubated in the presence or absence of the compounds of the present invention with nifedipine for 5 minutes. The cell was depolarized by adding potassium chloride solution (at the final concentration of 80 mM) thereto and then a fluorescence intensity at the emission wavelength of 500 nm excited by the UV of 340 nm and 380 nm alternately was measured using the intracellular calcium analyzer (Nippon Bunko Co., CAF-110). The inhibitory activity of the compound of the present invention (at the final concentration of 3 μM) on calcium influx into the cell was calculated from the difference in changing the fluorescence intensity at peak (ΔR) according to the following equation.

Each structure is given as a SMILES string.

T1 sequence (Q00975 whole entry): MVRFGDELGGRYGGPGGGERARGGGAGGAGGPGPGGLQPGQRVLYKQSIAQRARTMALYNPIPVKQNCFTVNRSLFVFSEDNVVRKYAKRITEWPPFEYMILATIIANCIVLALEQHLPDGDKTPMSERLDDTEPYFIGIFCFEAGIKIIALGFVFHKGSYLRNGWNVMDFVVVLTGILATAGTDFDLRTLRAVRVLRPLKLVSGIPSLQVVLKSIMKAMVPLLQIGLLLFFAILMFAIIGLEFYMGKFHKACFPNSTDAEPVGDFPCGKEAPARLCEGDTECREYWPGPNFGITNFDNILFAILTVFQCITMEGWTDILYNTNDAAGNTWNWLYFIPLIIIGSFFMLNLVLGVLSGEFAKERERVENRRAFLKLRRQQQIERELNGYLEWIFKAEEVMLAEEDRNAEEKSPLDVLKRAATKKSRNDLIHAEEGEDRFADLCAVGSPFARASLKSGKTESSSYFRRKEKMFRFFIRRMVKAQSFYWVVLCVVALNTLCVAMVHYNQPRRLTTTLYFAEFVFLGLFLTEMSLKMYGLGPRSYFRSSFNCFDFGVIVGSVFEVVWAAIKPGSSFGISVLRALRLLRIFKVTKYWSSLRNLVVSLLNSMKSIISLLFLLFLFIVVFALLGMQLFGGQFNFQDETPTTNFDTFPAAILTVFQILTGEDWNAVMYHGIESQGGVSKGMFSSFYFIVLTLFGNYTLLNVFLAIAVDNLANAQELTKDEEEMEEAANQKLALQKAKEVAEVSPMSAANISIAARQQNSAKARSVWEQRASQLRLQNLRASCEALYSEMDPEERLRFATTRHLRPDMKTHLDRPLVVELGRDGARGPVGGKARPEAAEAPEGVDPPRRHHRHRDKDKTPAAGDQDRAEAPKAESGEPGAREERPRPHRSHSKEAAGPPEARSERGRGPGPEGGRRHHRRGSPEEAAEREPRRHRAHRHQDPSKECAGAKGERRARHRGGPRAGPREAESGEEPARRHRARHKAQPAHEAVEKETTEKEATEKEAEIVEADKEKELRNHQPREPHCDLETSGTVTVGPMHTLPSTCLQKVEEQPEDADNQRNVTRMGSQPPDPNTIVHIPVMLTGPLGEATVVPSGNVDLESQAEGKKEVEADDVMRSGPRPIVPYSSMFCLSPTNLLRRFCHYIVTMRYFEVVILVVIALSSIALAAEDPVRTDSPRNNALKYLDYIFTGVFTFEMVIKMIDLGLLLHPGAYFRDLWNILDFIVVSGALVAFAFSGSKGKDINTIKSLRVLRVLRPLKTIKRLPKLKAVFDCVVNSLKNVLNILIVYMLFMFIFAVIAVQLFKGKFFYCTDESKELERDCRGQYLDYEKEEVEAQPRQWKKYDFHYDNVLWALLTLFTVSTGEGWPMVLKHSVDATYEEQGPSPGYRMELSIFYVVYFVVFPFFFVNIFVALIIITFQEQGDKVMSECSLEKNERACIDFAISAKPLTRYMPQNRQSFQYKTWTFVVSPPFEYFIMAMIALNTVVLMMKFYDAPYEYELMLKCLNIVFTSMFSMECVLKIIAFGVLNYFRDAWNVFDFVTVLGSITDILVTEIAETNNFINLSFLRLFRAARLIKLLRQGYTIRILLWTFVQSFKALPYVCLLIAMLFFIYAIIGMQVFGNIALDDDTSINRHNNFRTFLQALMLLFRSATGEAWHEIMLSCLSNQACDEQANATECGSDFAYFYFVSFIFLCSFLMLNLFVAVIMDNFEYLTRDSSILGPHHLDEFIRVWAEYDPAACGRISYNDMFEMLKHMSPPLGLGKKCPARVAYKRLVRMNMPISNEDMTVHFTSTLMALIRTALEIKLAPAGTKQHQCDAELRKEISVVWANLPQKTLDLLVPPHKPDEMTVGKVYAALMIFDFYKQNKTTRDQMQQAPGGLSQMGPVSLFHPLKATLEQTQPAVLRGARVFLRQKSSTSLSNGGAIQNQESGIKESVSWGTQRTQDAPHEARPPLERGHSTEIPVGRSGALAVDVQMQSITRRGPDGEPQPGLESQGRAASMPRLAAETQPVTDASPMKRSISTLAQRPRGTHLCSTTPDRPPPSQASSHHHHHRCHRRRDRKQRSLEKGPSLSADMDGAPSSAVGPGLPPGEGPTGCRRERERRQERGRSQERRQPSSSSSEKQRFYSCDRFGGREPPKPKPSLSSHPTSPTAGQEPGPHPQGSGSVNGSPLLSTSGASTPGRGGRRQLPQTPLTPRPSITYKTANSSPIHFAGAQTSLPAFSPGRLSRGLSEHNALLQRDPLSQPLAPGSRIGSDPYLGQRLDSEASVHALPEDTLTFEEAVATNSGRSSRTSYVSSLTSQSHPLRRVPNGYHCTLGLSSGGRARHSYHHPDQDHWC

For `CC(C)(C)OC(=O)N1CSC[C@H]1C(=O)N[C@@H](CSCC1CCCCC1)C(=O)NC1CCN(Cc2ccccc2)CC1` [compound 2, (2R)-N-(1-benzylpiperidin-4-yl)-3-cyclohexylmethylthio-2-((4R)-3-t-butoxycarbonylthiazolidin-4-ylcarbonylamino)propanamide], the inhibition at 3 µM stood at 95%.
